Source: PubChem BioAssay AID850 (SRMLSC, 2007)
The source made the active and inactive calls. No rule for the calls is given here.

Key:
[1] = concentration-response yeast growth inhibition under permissive conditions, counter-assay for yeast lifespan-shortening chemical project (AID 850); conditions: Saccharomyces cerevisiae growth inhibition, permissive control, measured here: maximum growth inhibition, stronger effect = higher value;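 also: growth read as optical density after one day of incubation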
[2] = tested on: Saccharomyces cerevisiae growth inhibition, permissive control; experiment: as above

Structure (SMILES)	IC50 [2]	inhibition ([1]; at 50 µM)	further results
O=[N+]([O-])c1ccc(CN2CCCCCC2)s1	> 100 µM (inactive)	–	inhibition ([1]; at 25 µM): 28.2%
CC1(CCc2ccccc2)NC(=S)N(c2ccc(Cl)cc2)N1 (stereo unspecified)	20.1 µM	99.6%	–
O=C(O)c1cc(-c2ccc(/C=N/Nc3ccc(Cl)cc3)o2)ccc1Cl	4.41 µM	98.8%	–
COc1ccc(N)c2c1C(=O)c1ccccc1C2=O	> 100 µM (inactive)	–	inhibition ([1]; at 25 µM): 22.5%
Cn1c2ccccc2c2cc(C(=O)O)ccc21	> 100 µM (inactive)	23.6%	–
Cc1csc(NC(=O)Cc2coc3cc(C)c(C(C)C)cc23)n1	> 100 µM (inactive)	–	inhibition ([1]; at 3.125 µM): 10.1%
Cc1cccc(OCCCCc2c(C)n[nH]c2C)c1C	32 µM	76.5%	–
Cc1ccc2c(c1)c1c(n2C)-c2[nH]ncc2CC1	38.2 µM	71.1%	–
COc1ccc2c(C)nc(Nc3nc(C)c(C)c(=O)[nH]3)nc2c1	44.6 µM	50.7%	–
O=[N+]([O-])c1ccc(Cl)c(S(=O)(=O)N2CCCCCC2)c1	31.8 µM	58.1%	–
CCOC(=O)/C(=N\Nc1cccc(C(F)(F)F)c1)N(CCOC)CCOC	> 100 µM (inactive)	–	inhibition ([1]; at 12.5 µM): -1.36%
CCCCCCCOC(=O)C[N+](C)(C)CCOC1CC2CCC1(C)C2(C)C (stereo unspecified)	29.2 µM	99.4%	–
COc1ccc(OCCNC2CCCC2)cc1	> 100 µM (inactive)	–	inhibition ([1]; at 0.195 µM): 7.53%
Cc1ccc(N=Cc2cccc(O)c2O)c(C)c1	16 µM	99.4%	–
COc1ccc(NC(=O)C2CCCN2S(=O)(=O)c2cccc3cccnc23)c(OC)c1 (stereo unspecified)	5.82 µM	102%	–
CCc1ccc(S(=O)(=O)NCCc2cn3ccsc3n2)s1	> 100 µM (inactive)	–	inhibition ([1]; at 25 µM): 10.4%
O=C(O)c1ccccc1Nc1ccc([N+](=O)[O-])cc1	14.6 µM	98%	–
CC1=CC(=O)C=C(C)C1=NOS(=O)(=O)c1ccccc1	26.4 µM	–	inhibition ([1]; at 12.5 µM): 62.4%
C=C(C)COc1ccc(-c2[nH]ncc2Oc2cccc(OC)c2)c(O)c1	> 100 µM (inactive)	–	inhibition ([1]; at 12.5 µM): 20.1%
COc1ccc(NC(=O)CC2SC(=Nc3ccccc3)NC2=O)c(OC)c1 (stereo unspecified)	> 100 µM (inactive)	–	inhibition ([1]; at 25 µM): 23.9%
NNC(=O)c1cccc(COc2ccc3c(c2)CCC3)c1	33.3 µM	71%	–

Structure (SMILES)	IC50 [2]	inhibition ([1]; at 50 µM)	further results
O=C(N/N=C/c1sc2ccccc2c1O)c1cccc2ccccc12	15.2 µM	93.6%	–
CC1(C)CC(=NOC(=O)c2ccccc2)CC(C)(C)N1O	14 µM	98.6%	–
CCCC1COC(Cn2cncn2)(c2ccc(Cl)cc2Cl)O1 (stereo unspecified)	0.184 µM	–	inhibition ([1]; at 3.125 µM): 97.3%
COc1cc(OC)c(C2CC(=O)N3CN(C)CSC3=C2C#N)cc1OC (stereo unspecified)	> 100 µM (inactive)	–	inhibition ([1]; at 0.781 µM): 11%
COc1ccc(C(=O)C(C)(C)NO)cc1	46.8 µM	50.7%	–
O=C(/C=C/c1ccccc1)c1cc(Br)ccc(=O)c1O	12.2 µM	98.8%	–
Cc1cc(O)c(/C=N/Nc2ccccc2Cl)c(=O)o1	22.3 µM	95.1%	–
c1ccc(-c2nnc(-c3ccccn3)nc2NC2CCCCC2)cc1	12.6 µM	99.6%	–
Cc1cc(O)c(/C=N/Nc2cccc(Cl)c2)c(=O)o1	26.7 µM	80.8%	–
CN(O)/C=c1/ccc2c(n1)C(=O)C=CC=2	8.03 µM	–	inhibition ([1]; at 12.5 µM): 98%
O=c1c2sc(-c3ccccc3)cc2nc2n1CCC2	14.6 µM	83.4%	–
COC(=O)CSC1=NS(=O)(=O)c2ccccc21	> 100 µM (inactive)	–	inhibition ([1]; at 12.5 µM): 27.4%
Cc1nc2c(F)c(F)c(C(F)(F)F)c(F)c2[nH]1	> 100 µM (inactive)	–	inhibition ([1]; at 0.391 µM): 17.4%
COc1cccc2c(=O)c3c(cnn3C)n(C)c12	> 100 µM (inactive)	–	inhibition ([1]; at 25 µM): 21.2%
CC1=C/C(=N\OS(=O)(=O)c2ccccc2)C(C)=CC1=O	0.614 µM	–	inhibition ([1]; at 12.5 µM): 100%
C=CCC1c2cccc(C(=O)O)c2C(=O)N1c1cccc(C)c1 (stereo unspecified)	49.7 µM	–	inhibition ([1]; at 25 µM): 44.4%
Cc1cc2nc(C)n3c4ccccc4nc3n2n1	35.3 µM	63.4%	–
CCOc1cccc(-c2nnc3n2N=C(c2cc(OC)ccc2OC)CS3)c1	> 100 µM (inactive)	–	inhibition ([1]; at 6.25 µM): 14.8%
C/C(O)=c1/ccc2cccc3nc(C)nc1c23	> 100 µM (inactive)	–	inhibition ([1]; at 25 µM): 24.2%
Cc1ccc(C(=O)CSC2=NC(N)=C(C#N)C3(CCCCC3)C2C(N)=O)cc1 (stereo unspecified)	> 100 µM (inactive)	–	inhibition ([1]; at 1.563 µM): 18.2%
Fc1ccc(N/N=C2/CC(c3ccccc3)Oc3ccccc32)c(F)c1 (stereo unspecified)	25.9 µM	95.9%	–

Structure (SMILES)	IC50 [2]	inhibition ([1]; at 50 µM)	further results
O=C1c2ccc3c4c(ccc(c24)C(=O)N1NC(=O)C(F)(F)F)CC3	> 100 µM (inactive)	–	inhibition ([1]; at 0.195 µM): 15.2%
Oc1ccc(COCc2ccccc2)c2cccnc12	6.07 µM	99.4%	–
COc1cc(OC)nc(NC(=O)CS(=O)(=O)c2ccccc2)n1	17.4 µM	77.3%	–
COc1ccc(-c2n[nH]c(C)c2-c2ccc(Cl)cc2)c(O)c1	33.9 µM	99%	–
Cc1cc([N+](=O)[O-])ccc1-c1ccc(C2Nc3ccccc3C(=O)N2O)o1 (stereo unspecified)	> 100 µM (inactive)	–	inhibition ([1]; at 0.781 µM): 3.97%
O=C(N/N=C/c1cc2c3c(c1O)CCCN3CCC2)c1ccccc1O	48.1 µM	49.5%	–
Cc1ccc2nc(-c3ccc(NS(C)(=O)=O)cc3)cc(-c3ccccc3)c2c1	> 100 µM (inactive)	22.2%	–
Cc1cc(C(=O)N/N=C/c2cccc([N+](=O)[O-])c2O)n[nH]1	> 100 µM (inactive)	–	inhibition ([1]; at 6.25 µM): 19.4%
Clc1ccc(N/N=C/c2ccncc2)cc1Cl	> 100 µM (inactive)	21.4%	–
Cc1ccc(-n2cnc3cc(NCc4cccs4)ccc32)cc1	45.8 µM	53.2%	–
CCCCCC/C(=N/O)c1ccccn1	9.77 µM	99.6%	–
COc1cccc(C(=O)O/N=C(\N)Cc2ccc(Cl)cc2)c1	6.32 µM	–	inhibition ([1]; at 12.5 µM): 97.5%
COC(=O)c1ccc(CSc2ccc3nnc(-c4cccc(F)c4)n3n2)o1	> 100 µM (inactive)	–	inhibition ([1]; at 6.25 µM): 17.7%
CC(C)(C)c1ccc(NC(=O)COC(=O)c2ccc([N+](=O)[O-])s2)cc1	49.5 µM	56.3%	–
O=C(NNC(=S)NC(=O)C12CC3CC(CC(C3)C1)C2)c1ccncc1	13.4 µM	94.8%	–
CCCc1cc(C(=O)Cc2ccc(F)cc2)c(O)cc1O	26.9 µM	80.4%	–
CC(C)c1ccc2c(c1)C1(NN=C(c3ccccc3)S1)C(=O)N2 (stereo unspecified)	49.5 µM	49.5%	–
O=C(Nc1cccc(N=Cc2cc(Br)cc(Br)c2O)c1)c1ccco1	11.1 µM	100%	–
c1ccc2c(c1)nnn1c3ccccc3nc21	> 100 µM (inactive)	–	inhibition ([1]; at 3.125 µM): 14.6%
Cc1ccc(N/N=C/c2cccnc2)cc1	13 µM	97%	–
O/N=C/c1ccc(OCc2ccccc2)c(Br)c1	> 100 µM (inactive)	–	inhibition ([1]; at 0.781 µM): 11.2%

Structure (SMILES)	IC50 [2]	inhibition ([1]; at 50 µM)	further results
CN(C)CCNC=C(C(=O)Nc1ccc(Cl)cc1Cl)C(=O)Nc1ccc(Cl)cc1Cl	18.6 µM	–	inhibition ([1]; at 25 µM): 101%
CC(C)(C)C(=O)O/N=C1/C(=O)N(c2ccccc2)c2ccccc21	42.9 µM	–	inhibition ([1]; at 25 µM): 52.3%
O=C(O)CCn1cc(/C=C/C(=O)c2ccc(Cl)cc2)c(-c2ccc(Br)cc2)n1	> 100 µM (inactive)	–	inhibition ([1]; at 12.5 µM): 15.3%
O=C1c2cccc3c(Cl)ccc(c23)C(=O)N1O	39.6 µM	61.6%	–
COc1ccc(CN2CN(C(C)C)CSC2=S)cc1	> 100 µM (inactive)	26.3%	–
CC1(C)C(C=C(Cl)Cl)C1C(=O)Nc1ccc([N+](=O)[O-])cc1 (stereo unspecified)	> 100 µM (inactive)	15.4%	–
Cc1nc2ccc(C(=O)O)cc2[nH]1	> 100 µM (inactive)	–	inhibition ([1]; at 0.391 µM): 27.5%
c1cncc(-c2nnc(-c3cccnc3)nn2)c1	26.3 µM	90.5%	–
COc1ccc(-c2cc3nc(C)cc(N4CC(C)CC(C)C4)n3n2)cc1 (stereo unspecified)	50.7 µM	48.3%	–
O=C(ONC1=NCCCCC1)c1ccc(Cl)cc1	7.02 µM	99.8%	–
Cc1ccc(C)c(/C=C/C(=O)c2ccccc(=O)c2O)c1	6.38 µM	–	inhibition ([1]; at 25 µM): 100%
COc1ccc(Br)cc1C1CC(=O)N2CN(C)CSC2=C1C#N (stereo unspecified)	> 100 µM (inactive)	–	inhibition ([1]; at 1.563 µM): 17%
O=C1c2ccccc2-c2nc3ccccc3nc21	> 100 µM (inactive)	27.3%	–
O=C1c2ccccc2NC(c2ccc(-c3cccc(Cl)c3)o2)N1O (stereo unspecified)	47.1 µM	52.3%	–
Nc1ccc(SC(F)(F)F)cc1C(=O)c1ccccc1	> 100 µM (inactive)	–	inhibition ([1]; at 0.391 µM): 14.9%
c1ccc2nc3c(nc2c1)[nH]c1ccccc13	> 100 µM (inactive)	19.1%	–
CCc1cccc(CC)c1NC(=S)NCc1ccc2[nH]c(C)cc2c1	> 100 µM (inactive)	13.8%	–
O=C(O)c1ccc(N(c2ccccc2)c2ccccc2)cc1	> 100 µM (inactive)	–	inhibition ([1]; at 0.195 µM): 10.2%
COc1ccccc1-n1c(=O)oc2ccc(Cl)cc2c1=O	> 100 µM (inactive)	–	inhibition ([1]; at 6.25 µM): -0.76%
O=C(Nc1cccc(C(F)(F)F)c1)C(Sc1cccc[n+]1[O-])c1ccccc1 (stereo unspecified)	31.4 µM	90.2%	–
